Assay results: EP0515684A1, “INHIBITOR OF DENATURED LDL FORMATION” (Chugai Seiyaku Kabushiki Kaisha, priority 1990, dated 1991)

Test system: rabbit LDL
Assay: Amount of thiobarbituric acid reactive substances (TBARS) formed on Cu2+ oxidation of LDL
Assay type: biochemical
Details: 5 µM of Cu²⁺ added to rabbit LDL, followed by heating
Method: The biological properties of the compounds as shown hereinafter were examined by the following methods. • (1) The amount of thiobarbituric acid reactive substances: 5 µM of Cu²⁺ was added to rabbit LDL, prepared by the method reported by Havel et al., followed by heating. Then the antioxidative effect of each compound was examined by using the thiobarbituric acid reactive substances (TBARS) thus formed as the guidance. […] 0.5 ml of an n-butanol solution containing 0.2 µM of MCLA and 10 mM of linoleic acid was introduced into a vial for luminescence analysis and the luminescence due to autoxidation was measured in a thermostat at 37°C. […] To the obtained plasma, were added EDTA-NaN₃ (a 5% solution of pH 7.4) and a benzamidine solution (60 mg/ml) respectively in amounts of 0.8 ml and 0.5 ml per 100 ml of the plasma. Then rabbit or human LDL (1.019 < d < 1.063) was prepared by ultracentrifugation in accordance with the method of Havel et al.*. After performing the ultracentifugation again, the LDL was washed and concentrated. Then it was dialyzed against a 150 mM NaCl - 2 mM Na₂HPO₄ solution at 4°C and KBr was removed. The protein content was determined by Lowry method** and then the LDL was subjected to the subsequent procedure. (Measurement of electrophoretic mobility in agarose gel) 10 µM of Cu²⁺ and a specimen were added to an LDL-containing solution (3.00 µg protein/ml). After incubating at 37°C for approximately 24 hours, a portion (1 µl) thereof was applied onto an agarose gel film (Universal Film, manufactured by Corning Co.) and then subjected to electrophoresis (Agarose Gel Electrophoresis System for Lipoprotein, manufactured by Corning Co.). Thus the mobility was measured by staining lipids with Fat Red 7B. […] After 3 days, peritoneal macrophages were collected from the mouse and incubated in an RPMI 1640 medium containing 10% of FBS. The macrophages were used in the • examination on the next day.

Row | Structure (SMILES) | Formed TBARS (%) (Compound conc. 10^-5 M, 10 µM) | Formed TBARS (%) (Compound conc. 10^-6 M, 1 µM)
1 | COc1cc(N(C)Cc2ccccc2)cc(OC)c1OC [Compound 2, N-benzyl-N-methyl-3,4,5-trimethoxyaniline] | 31 | 56
2 | CCN(Cc1ccccc1)c1cc(OC)c(OC)c(OC)c1 [Compound 3, N-benzyl-N-ethyl-3,4,5-trimethoxyaniline] | 35 | 51
3 | COc1cc(N(CC=C(C)CCC=C(C)C)Cc2ccccc2)cc(OC)c1OC [Compound 8] | 31 | 55
4 | COc1cc(N(CC=C(C)CCCC(C)CCCC(C)CCCC(C)C)Cc2ccccc2)cc(OC)c1OC (stereo not shown) [Compound 9] | 57 | 78
5 | COc1cc(NCc2ccc(C)c(C)c2)cc(OC)c1OC [Compound 10] | 9 | 25
6 | COc1cc(NCc2ccc(Br)cc2)cc(OC)c1OC [Compound 26] | 12 | 27
7 | COc1cc(NCc2cccc(Br)c2)cc(OC)c1OC [Compound 27] | 12 | 29
8 | COc1cc(NCc2ccccc2Br)cc(OC)c1OC [Compound 28] | 13 | 30
9 | COc1cc(NCc2c(F)c(F)c(F)c(F)c2F)cc(OC)c1OC [Compound 29] | 20 | 39
10 | COc1cc(N(CCCc2ccccc2)Cc2c(F)c(F)c(F)c(F)c2F)cc(OC)c1OC [Compound 30] | 26 | 57
11 | COc1cc(CNc2cc(OC)c(OC)c(OC)c2)cc(OC)c1OC [Compound 35] | 28 | 52
12 | CCCCCCOc1ccc(CNc2cc(OC)c(OC)c(OC)c2)cc1 [Compound 41] | 16 | 63
13 | CCCCCCCCOc1ccc(CNc2cc(OC)c(OC)c(OC)c2)cc1 [Compound 42] | 19 | 72
14 | CCCCCCCCCCCCOc1ccc(CNc2cc(OC)c(OC)c(OC)c2)cc1OCCCCCCCCCCCC [Compound 43] | 62 | 94
15 | COc1cc(NCc2ccccc2OCCC(C)CCCC(C)C)cc(OC)c1OC (stereo not shown) [Compound 45] | 15 | 80
16 | COc1cc(NCc2ccccc2OC/C=C(\C)CCC=C(C)C)cc(OC)c1OC [Compound 46] | 13 | 69
17 | COc1cc(NCc2ccc(OC/C=C(\C)CCC=C(C)C)cc2)cc(OC)c1OC [Compound 47] | 17 | 76
18 | COc1cc(NCc2ccc(OC/C=C(\C)CCCC(C)CCCC(C)CCCC(C)C)cc2)cc(OC)c1OC (stereo not shown) [Compound 48] | 40 | 90
19 | COc1cc(NCc2ccc(OC/C=C(\C)CC/C=C(\C)CCC=C(C)C)cc2)cc(OC)c1OC [Compound 49] | 39 | 78
20 | COc1cc(NCc2ccccc2SCCC(C)CCCC(C)C)cc(OC)c1OC (stereo not shown) [Compound 50] | 17 | 70
21 | COc1cc(NCc2cccc(Oc3ccccc3)c2)cc(OC)c1OC [Compound 51] | 16 | 32
22 | COc1cc(NCc2ccc(Oc3ccccc3)cc2)cc(OC)c1OC [Compound 52] | 13 | 43
23 | CCOC(=O)CCCCCCOc1ccc(CNc2cc(OC)c(OC)c(OC)c2)cc1 [Compound 53] | 13 | 38
24 | COc1cc(NCc2ccc(OCCCCCCC(=O)O)cc2)cc(OC)c1OC [Compound 54] | 16 | 46
25 | CCOC(=O)C(C)(C)Oc1ccc(CNc2cc(OC)c(OC)c(OC)c2)cc1 [Compound 55] | 20 | 46

Row | Structure (SMILES) | Formed TBARS (%) (Compound conc. 10^-5 M, 10 µM) | Formed TBARS (%) (Compound conc. 10^-6 M, 1 µM)
26 | COc1cc(NCc2ccc(OC(C)(C)C(=O)O)cc2)cc(OC)c1OC [Compound 56] | 59 | 77
27 | COc1cc(NCc2ccc(CNc3cc(OC)c(OC)c(OC)c3)cc2)cc(OC)c1OC [Compound 57] | 12 | 34
28 | COC(=O)c1ccc(CNc2cc(OC)c(OC)c(OC)c2)cc1 [Compound 60] | 17 | 46
29 | COc1cc(NCc2ccc([N+](=O)[O-])cc2)cc(OC)c1OC [Compound 64] | 17 | 38
30 | COc1cc(NCc2ccc(CO)cc2)cc(OC)c1OC [Compound 67] | 35 | 55
31 | COc1cc(NCCc2ccccc2)cc(OC)c1OC [Compound 69] | 18 | 36
32 | COc1cc(NCCCc2ccccc2)cc(OC)c1OC [Compound 70] | 18 | 25
33 | COc1cc(NCCCCc2ccccc2)cc(OC)c1OC [Compound 71] | 7 | 20
34 | COc1cc(NCCCc2ccc(CO)cc2)cc(OC)c1OC [Compound 75] | 16 | 38
35 | CCCCC(Nc1cc(OC)c(OC)c(OC)c1)c1ccccc1 (stereo not shown) [Compound 77, N-(1-phenylpentyl)-3,4,5-trimethoxyaniline] | 17 | 31
36 | CCCCCCC(Nc1cc(OC)c(OC)c(OC)c1)c1ccccc1 (stereo not shown) [Compound 78] | 14 | 29
37 | CCCCCCCCC(Nc1cc(OC)c(OC)c(OC)c1)c1ccccc1 (stereo not shown) [Compound 79] | 19 | 46
38 | C=CCC(Nc1cc(OC)c(OC)c(OC)c1)c1ccccc1 (stereo not shown) [Compound 80] | 17 | 33
39 | COc1cc(NC(CC(C)C)c2ccccc2)cc(OC)c1OC (stereo not shown) [Compound 81] | 15 | 25
40 | COc1cc(NC(c2ccccc2)c2ccccc2)cc(OC)c1OC [Compound 82] | 15 | 34
41 | COc1cc(NC(CCc2ccccc2)C(C)C)cc(OC)c1OC (stereo not shown) [Compound 83] | 15 | 28
42 | COc1cc(NCC=Cc2ccccc2)cc(OC)c1OC [Compound 85] | 20 | 64
43 | COc1cc(N(CC=Cc2ccccc2)CC=Cc2ccccc2)cc(OC)c1OC [Compound 86] | 27 | 52
44 | COc1cc(NC2CCCc3ccccc32)cc(OC)c1OC (stereo not shown) [Compound 90] | 9 | 26
45 | COc1cc(NCc2ccc[nH]2)cc(OC)c1OC [Compound 94] | 63 | 87
46 | COc1cc(NCc2ccco2)cc(OC)c1OC [Compound 95] | 29 | 66
47 | C=CCN(Cc1ccco1)c1cc(OC)c(OC)c(OC)c1 [Compound 96] | 43 | 67
48 | COc1cc(NCc2cccs2)cc(OC)c1OC [Compound 97] | 24 | 44
49 | COc1cc(NCc2ccccn2)cc(OC)c1OC [Compound 98] | 43 | 79
50 | COc1cc(NCc2cccnc2)cc(OC)c1OC [Compound 99] | 47 | 79
